Source: US20070172514A1, “Materials and methods for improving livestock productivity” (priority 2006, published 2007)
Marks after values point to notes of the source that are not given here.

Key:
[1] = system: fattening pigs; assay: Carcass composition/appearance of fattening pigs; format: in vivo, swine
Procedure: 72 piglets were divided evenly into control group and Cysteamine group. The control group was treated with basal diet while the Cysteamine group was treated with basal diet added with 150 g cysteamine hydrochloride per ton of feed. Upon reaching the market weight of 85-90 kg, five animals from each treatment were slaughtered after fasting for one day. During slaughter, the animals were stunned with a stunning gun, bled, dehaired and eviscerated. The carcass was split […] and then chilled for 24 hours prior to fabrication. The slaughter and the chilled carcass weights were recorded. The chilled carcass weight expressed as percentage of the slaughter weight represents the dressed yield. The wholesale and retail cuts of each animals were weighed and recorded. The values were expressed as the percentage of the live weight and of the chilled carcass weight.
The area of the longissimus dorsi (LD) muscle was measured on the 12th rib of the right part of the carcasses. This was done by tracing the outline of the whole LD muscle on acetate paper and the area was measured with the use of a grading method.

[2] = system: small-fat-tail sheep; assay: Enhanced productivity in small-fat-tail sheep; format: in vivo; conditions: 35 days
Procedure: In the following example, the test animals were sheep (small-fat-tail sheep). The experiment was performed at the Goat Trial Farm of Beijing Shengshifumin Muslim Food Company during the thirty-five day period from Dec. 2, 2004 to Jan. 5, 2005. In total, 40 heads of small-fat-tail sheep with the average weight of 26.5 kg were randomly divided into Control group (20) and Cysteamine group (20). The control group was fed with basal diet only, while the Cysteamine group was fed a diet that included 900 g cysteamine HCl per tonnage of diet. The standard basal diet of the farm was employed for this trial.

[3] = system: pregnant pig sow; assay: Enhanced productivity in swine: pregnant sows fed cysteamine hydrochloride; format: in vivo, swine (D×L×M hybrid swine); set-up: Live piglet born rate, Improvement / Live piglet born rate, Improvement (%) / Birth weight per litter, Improvement: dose or concentration left out as unconfirmed; conditions: for Birth weight per litter, Improvement (%) / Birth weight per piglet, Improvement (%) / Body weight of weaned piglet, Improvement (%): hydrochloride
From the text: A total of 14 heads of pregnant pig sow (which were the offspring of Duroc×Landrace×Meishan swine, also referred to herein as D×L×M hybrid swine) (84 days of pregnant) were divided into 2 groups: Control group (6) and Cysteamine group (8). The Control group was fed with basal diet. […]

[4] = system: pig intestine villi; assay: Intestine villi length and histology in pigs; format: in vivo, swine; conditions: 30 days
Procedure: 72 piglets were evenly divided into control group and Cysteamine group. The control group was treated with basal diet only, while the Cysteamine group was added with 150 g of cysteamine hydrochloride per ton of feed. The trial was lasted for 30 days.
Immediately after evisceration, tissue samples from the small intestine, large intestine, liver, and pancreas of pigs from each treatment group were collected. The collected samples were placed in properly labeled containers containing 10% buffered neutral formalin solution. The tissue samples were fixed for 78 hours before they were processed for routine histological examination using the paraffin embedding technique (well-known to the skilled artisan).
Sections approximately 5 to 6 μ thick were cut from paraffin blocked tissues using Optical 820 Rotary Microtome (Scientific Instruments Division, Buffalo, N.Y.). Some sections were stained with hematoxylin and eosin (H & E), others with Alcian blue. H & E stained sections were used for the examination of the general histology of the intestinal tract while the Alcian blue stained sections were used for goblet cells identification. The stained sections were examined under various magnifications using a light microscope.
The number and length (μm) of villi in the small intestine were counted per microscopic field; the thickness of the tunica muscularis in the small and large intestine were measured using American Optical Micrometer (American Optical Company, Buffalo, N.Y.) calibrated in millimeters. The mucosal folds in the large intestine, the density of intestinal glands (crypts), the appearance of the surface epithelium were all observed. The general histology of the liver and pancreas were examined and compared between Cysteamine treated and non-Cysteamine treated groups. Goblet cell density in the Cysteamine treated and non-Cysteamine treated pigs was compared through visual examination using light microscope.

[5] = system: crossbreed sheep; assay: Enhanced productivity in crossbreed sheep; format: in vivo; conditions: 35 days
[6] = system: D×L×M weanling piglets; assay: Enhanced growth in swine: weanling piglets fed cysteamine hydrochloride; format: in vivo; conditions: 30 days; for ADG, Improvement (%): (text: 90 g per ton of feed), hydrochloride
From the text: Total of 100 heads of unhealthy D×L×M weanling piglets (approx. 6.78 kg) were divided into 2 groups—Control group (50 heads) & Cysteamine group (50 heads). The Control group was fed with basal diet. […]

[7] = system: Ximenta'er hybridizing beef cattle; assay: Enhanced productivity in beef cattle; format: in vivo
Procedure: In the following example, the test animals were beef cattle (Ximenta'er hybridizing beef cattle). The experiment was performed at the Hebei Hengshui Geling Beef Cattle Raising Farm dur the period from Oct. 10 to Dec. 21, 2002. In total, 64 heads of around 350 kg Ximenta'er hybridizing beef cattle were selected and separated into 4 groups randomly according to the principle of equalizing age, weight, grace, fur/hair condition, etc. Each group had 16 heads of beef cattle. The Control Group, Test Group I, II & III were fed a composition comprising 0, 1.5, 3, 6 g/head/day of cysteamine HCl, respectively. As noted in Tables 8, 9, and 10 below, adding a cysteamine compound to the basal diet of beef cattle can increase daily weight gain.

[8] = 150 g per ton of feed, slaughter at 85-90 kg
[9] = feed consumption, 20 head, 900 g/tonnage
[10] = in words, 900 g cysteamine HCl per tonnage of diet
[11] = relative to control, 900 g/tonnage
[12] = late phase pregnant sow, (text: 150 g per ton feed)
[13] = relative to control, (text: 150 g per ton feed)
[14] = relative to control, Dosage (text: 150 g per ton feed)
[15] = in words, 150 g per ton of feed
[16] = vs control, 90 g cysteamine hydrochloride per ton of feed
[17] = Test III, 6 g/head/day, p<0.05 vs Control

## Cl.NCCS [Cysteamine HCl, cysteamine hydrochloride]
[1]; 150 g cysteamine hydrochloride per ton of feed, slaughter at 85-90 kg, five animals
  Dressing %: 69.012%
[1]; [8]
  Lean:Fat Ratio: 0.105
  Loin Eye Area: 4.850 sq.cm
[1]; 150 g per ton of feed, slaughter at 85-90 kg, P < 0.05 vs Non-Cysteamine HCl
  Backfat Thickness: 1.91^a cm
[1]; in words
  backfat vs pigs fed diet without cysteamine hydrochloride: significantly thinner
  differences in dressing percentage, loin eye area, and lean:fat ratio vs diet without cysteamine hydrochloride: no significant differences
  loin cut and lean trimmings as a percent of the live-weight vs diets without cysteamine hydrochloride: significantly higher
[2]; 20 head, 900 g/tonnage
  Total feed consumption: 1019.38 kg
[2]; Dosage 900 g/tonnage
  Final weight: 28.92 kg/head
  Weight gain: 3.350 kg/head
  daily weight gain: 95.71 g/head/day
[2]; [9]
  Concentrate: 245 kg
  Hay: 350.00 kg
  Silage: 424.38 kg
[2]; [10]
  ADG vs control: statistically significant increase
[2]; [11]
  Daily weight gain, Improvement (%): 30.9%
  Silage, Improvement (%): −16.22%
  Weight gain, Improvement (%): 30.9%
[3]; difference vs control
  Birth weight per litter, Improvement: 2.50 kg
  Birth weight per piglet, Improvement: 0.23 kg/head
  Live piglet born rate, Improvement: 0.00%
[3]; difference vs control, weaning age 19 days
  Body weight of weaned piglet, Improvement: 0.46 kg/head
[3]; late phase pregnant sow, 8 sows, Dosage (text: 150 g cysteamine hydrochloride per ton feed), from 84 days of pregnant to weaning
  Total piglet born: 82 head
[3]; late phase pregnant sow, 8 sows, Dosage (text: 150 g per ton feed)
  Total live piglet born: 82 head
[3]; [12]
  Birth weight per litter: 21.32 kg
  Birth weight per piglet: 2.08 kg/head
  Live piglet born per litter: 10.29 head
  Live piglet born rate: 100.00%
[3]; late phase pregnant sow, Dosage (text: 150 g per ton feed), from 84 days of pregnant to weaning
  Piglet born per litter: 10.29 head
[3]; relative to control
  Live piglet born rate, Improvement (%): 0.00%
[3]; [13]
  Birth weight per litter, Improvement (%): 13.28%
  Birth weight per piglet, Improvement (%): 12.43%
[3]; [14]
  Birth weight per litter, Improvement (%): 13.28%
  Birth weight per piglet, Improvement (%): 12.43%
[3]; relative to control, weaning age 19 days, listed as Cysteamine
  Body weight of weaned piglet, Improvement (%): 8.00%
[3]; relative to control, weaning age 19 days, listed as cysteamine hydrochloride
  Body weight of weaned piglet, Improvement (%): 8.00%
[3]; weaning age 19 days, Dosage (text: 150 g per ton feed)
  Body weight of weaned piglet: 6.21 kg/head
[4]; 150 g of cysteamine hydrochloride per ton of feed, same letter as Non-Cysteamine (p>0.05), unit only in method b111
  Villi Length, Small Intestines: 2.15 ± 0.09^A μm
[4]; [15]
  goblet cells in the small and large intestine vs non-Cysteamine-treated: noticeably larger and highly distended
  length of small intestinal villi vs non-Cysteamine treated: longer
  number of small intestinal villi vs non-Cysteamine treated: more numerous
[5]; 20 head, 900 g/tonnage
  Total feed consumption: 1001.2 kg
[5]; Dosage 900 g/tonnage
  ADG: 82.29 g/head/day
  Final weight: 29.59 kg/head
  Weight gain: 2.88 kg/head
[5]; [9]
  Concentrate: 245 kg
  Hay: 350.0 kg
  Silage: 406.2 kg
[5]; [10]
  ADG vs control: statistically significant increase
[5]; [11]
  ADG, Improvement (%): 46.2%
  Silage, Improvement (%): −5.14%
  Weight gain, Improvement (%): 46.2%
[6]; 50 head
  Total feed consumption: 1076.1 kg
  Total final weight: 973 kg
  Total weight gain: 633 kg
[6]
  Daily feed consumption: 717.4 g/head
  Weight gain: 12.66 kg/head
[6]; average daily weight gain
  ADG: 422 g/head
[6]; difference vs control, 50 head
  Total feed consumption, Improvement: +66.3 kg
  Total final weight, Improvement: +75 kg
  Total weight gain, Improvement: +72.5 kg
[6]; difference vs control
  ADG, Improvement: +48 g/head
  Daily feed consumption, Improvement: +44.2 g/head
  FCR, Improvement: −0.1
  Final Wt., Improvement: +1.5 kg/head
  Weight gain, Improvement: +1.45 kg/head
[6]; feed conversion rate
  FCR: 1.70
[6]; of 50 head
  Diarrhea: 21 head
[6]; relative to control
  Diarrhea, Improvement (%): −43.24%
  FCR, Improvement (%): −5.56%
[6]; relative to control, listed as Cysteamine
  ADG, Improvement (%): 12.83%
[6]; relative to control, listed as cysteamine hydrochloride
  ADG, Improvement (%): 12.83%
[6]; [16]
  decrease in feed conversion rate (FCR): 5.56%
  improvement in diarrhea condition: 43.24%
[6]; weanling piglets, Treatment (text: 90 g cysteamine hydrochloride per ton of feed)
  Final Wt.: 19.46 kg/head
[7]; Test Group III, 6 g/head/day, p<0.05 vs Control, Test Group I & II
  daily weight gain: 1.217 kg
[7]; Test I, 1.5 g/head/day
  Feed Conversion Rate (FCR), Concentrated feed: 3.54
  Feed Conversion Rate (FCR), Corn Silage: 14.14
  Feed Conversion Rate (FCR), Raw Grass: 1.21
  Final Wt.: 423.8 kg
[7]; Test II, 3 g/head/day
  Feed Conversion Rate (FCR), Concentrated feed: 3.70^a
  Feed Conversion Rate (FCR), Corn Silage: 14.42^a
  Feed Conversion Rate (FCR), Raw Grass: 1.27^a
  Final Wt.: 420.5 kg
[7]; Test III, 6 g/head/day
  Feed Conversion Rate (FCR), Raw Grass: 1.06^a
  Final Wt.: 432.7 kg
[7]; [17]
  Feed Conversion Rate (FCR), Concentrated feed: 3.09^b
  Feed Conversion Rate (FCR), Corn Silage: 12.87^b
